Data taken from patent US20080269184A1, “Niosome Having Metal Porphyrin Complex Embedded Therein, Process For Producing The Same And Drug With The Use Thereof” (priority 2004, published 2008).
Where two headings read alike, the source gives them in different places.

What was measured:
[1] = SOD activity by the stopped flow method (potassium superoxide); type: biochemical; settings: HEPES buffer pH 8.1, 36° C.
Protocol: The SOD activity (i.e. ° 2-extinction activity) of Por-embedding niosome was evaluated according to the stopped flow method of Riley et al. (D. P. Riley, W. L. Rivers, and R. H. Weiss, Anal. Biochem., 196, 344 (1991)). A specific procedure was as follows: 60 mM HEPES/HEPES Na buffer solutions (8.1 pH) containing Por-embedding niosome at different concentrations were rapidly mixed with a dimethyl sulfoxide solution of potassium superoxide, which is an O2^−. generation source, at 36° C. to measure over time an attenuation of absorbance at 245 nm due to O2^−. (a decay curve of O2^−. extinction reaction). The relationship of ln (absorbance) and time was determined from the decay curve. The apparent rate constant was calculated from the inclination of the resulting relationship. The rate constant (kcat) of the O2^−. extinction reaction was then determined from the inclination of the relationship of the metalloporphyrin complex concentration and the apparent rate constant.

[2] = value disclosed by Fridovich et al., J. Biol. Chem., 273, 24251 (1998); read-out: IC50 (SOD activity); cited from earlier work
[3] = value disclosed by Ohse, Kawakami et al., J. Inorg. Biochem., 85, 201 (2001); cited from earlier work
[4] = SOD activity by the cytochrome c method (xanthine/xanthine oxidase); type: biochemical; settings: pH 7.8, 25° C., metalloporphyrin concentration
Protocol: The SOD activity (i.e. O2— extinction activity) of Por-embedding niosome was evaluated according to the cytochrome c method ((1) J. M. Mccord and I. Fridovich, J. Biol. Chem., 244, 6049 (1969) and (2) J. Butler, W. H. Kopenol, E. Margoliash, J. Biol. Chem., 257, 10747 (1982)). A specific procedure was as follows: Five or more Por-embedding niosome solutions (A solutions) with different metalloporphyrin concentrations ranging from 0 to 1,000 μM were prepared. […] The UV-vis was also measured for a solution without addition of Por-embedding niosome (blank) in the same manner.
The ferrocytochrome c formation rates in a solution not containing Por-embedding niosome (vo) and a solution containing Por-embedding niosome (vi) were determined from the relationship between the time and the absorbance at 550 nm in the UV-vis measurement over time. The inhibition coefficient (IC) was calculated according to the following formula to determine the concentration of metalloporphyrin when IC=50% (IC50) from the relationship between the concentration of metalloporphyrin complex and IC. […] The SOD activity of MnT4MPyP and the like was evaluated in the same manner for reference. […]

| IC50 [4] [nM] | Compound | kcat (rate constant of the O2−. extinction reaction) [1] [M⁻¹ s⁻¹] | IC50 [2] [nM] | kcat (rate constant of the O2−. extinction reaction) [3] [M⁻¹ s⁻¹] |
| --- | --- | --- | --- | --- |
| 430 | C[n+]1ccc(-c2c3nc(c(-c4cc[n+](C)cc4)c4ccc([n-]4)c(-c4cc[n+](C)cc4)c4nc(c(-c5cc[n+](C)cc5)c5ccc2[n-]5)C=C4)C=C3)cc1.[Mn+2] [MnT4MPyP, Manganese[5,10,15,20-tetrakis(4-methylpyridyl)porphyrin]] | 1.4e+07 | 700 | 2.2e+07 |
| 180 | manganese[5,10,15,20-tetrakis(2-methylpyridyl)porphyrin] [MnT2MPyP] | 2.1e+07 |  |  |
